# Reference: US6737041B1, “Non-ozone depleting vapocoolants” (University of Cincinnati, priority 1993, dated 2004)
# How the values were obtained:
# [1] = tested on: skin (site on the subject's forearm); assay: Study 1: minimum skin temperature after spraying coolant for 5 seconds from 12 inches; format: in vivo, human; settings: spray time 5 seconds; for Minimum temperature for site A, MEAN ± STANDARD DEVIATION / Minimum temperature for site A: site A (forearm); for Minimum temperature for site A, MEAN ± STANDARD DEVIATION / Minimum temperature for site B, MEAN ± STANDARD DEVIATION: mean of 5 subjects, in °C (unit assumed); for Minimum temperature for site B, MEAN ± STANDARD DEVIATION / Minimum temperature for site B: site B (forearm, different from A)
# Procedure: Tables 1 and 5 describe the experimental conditions in accordance with the procedural steps described above. The only difference between Table 1 and Table 5 and between Study 1 and Study 2 is that in Study 1 the spray time was five seconds, whereas in Study 2 the spray time was 3 seconds. Comparison is made between various coolants including ethylchloride at room temperature, ethylchloride at 11° C., Fluorimethane® at room temperature, Fuorimethane® at 11° C. and mixtures of HFC 152a and HFC 134a.
# (§1) Tables 2 and 6 describe the subjects chosen including their normal skin temperature, the sex, race, age, weight and height of the subjects.
# [2] = tested on: skin (site on the subject's forearm); assay: Study 2: minimum skin temperature after spraying coolant for 3 seconds from 12 inches; format: in vivo, human; settings: spray time 3 seconds; for Minimum temperature for site A, MEAN ± SD / Minimum temperature for site A: site A (forearm); for Minimum temperature for site A, MEAN ± SD / Minimum temperature for site B, MEAN ± SD: mean of 15 subjects, in °C (unit assumed); for Minimum temperature for site B, MEAN ± SD / Minimum temperature for site B: site B (forearm, different from A)
# Description: Tables 1 and 5 describe the experimental conditions in accordance with the procedural steps described above. The only difference between Table 1 and Table 5 and between Study 1 and Study 2 is that in Study 1 the spray time was five seconds, whereas in Study 2 the spray time was 3 seconds.
# as §1
# [3] = subject 1, in °C (unit assumed)
# [4] = subject 2, in °C (unit assumed)
# [5] = subject 3, in °C (unit assumed)
# [6] = subject 4, in °C (unit assumed)
# [7] = subject 5, in °C (unit assumed)
# [8] = subject code 1, in °C (unit assumed)
# [9] = subject code 2, in °C (unit assumed)
# [10] = subject code 3, in °C (unit assumed)
# [11] = subject code 4, in °C (unit assumed)
# [12] = subject code 5, in °C (unit assumed)
# [13] = subject code 6, in °C (unit assumed)
# [14] = subject code 7, in °C (unit assumed)
# [15] = subject code 8, in °C (unit assumed)
# [16] = subject code 9, in °C (unit assumed)
# [17] = subject code 10, in °C (unit assumed)
# [18] = subject code 11, in °C (unit assumed)
# [19] = subject code 12, in °C (unit assumed)
# [20] = subject code 13, in °C (unit assumed)
# [21] = subject code 14, in °C (unit assumed)
# [22] = subject code 15, in °C (unit assumed)
compound,measurement,setting,value
"CCCl [EC, Ethyl chloride]","Minimum temperature for site A, MEAN ± STANDARD DEVIATION",[1],−14.93 ± 2.45
same,Minimum temperature for site A,[1]; [3],−13.22
same,Minimum temperature for site A,[1]; [4],−16.87
same,Minimum temperature for site A,[1]; [5],−17.56
same,Minimum temperature for site A,[1]; [6],−11.72
same,Minimum temperature for site A,[1]; [7],−15.26
same,"Minimum temperature for site B, MEAN ± STANDARD DEVIATION",[1],−16.40 ± 0.77
same,Minimum temperature for site B,[1]; [3],−16.87
same,Minimum temperature for site B,[1]; [4],−15.78
same,Minimum temperature for site B,[1]; [5],−15.73
same,Minimum temperature for site B,[1]; [6],−16.12
same,Minimum temperature for site B,[1]; [7],−17.50
same,"Minimum temperature for site A, MEAN ± SD",[2],−15.70 ± 1.56
same,Minimum temperature for site A,[2]; [8],−16.93
same,Minimum temperature for site A,[2]; [9],−14.64
same,Minimum temperature for site A,[2]; [10],−13.78
same,Minimum temperature for site A,[2]; [11],−14.86
same,Minimum temperature for site A,[2]; [12],−15.34
same,Minimum temperature for site A,[2]; [13],−14.75
same,Minimum temperature for site A,[2]; [14],16.70
same,Minimum temperature for site A,[2]; [15],−18.76
same,Minimum temperature for site A,[2]; [16],−15.46
same,Minimum temperature for site A,[2]; [17],−16.53
same,Minimum temperature for site A,[2]; [18],−14.68
same,Minimum temperature for site A,[2]; [19],−13.59
same,Minimum temperature for site A,[2]; [20],−14.52
same,Minimum temperature for site A,[2]; [21],−16.62
same,Minimum temperature for site A,[2]; [22],−18.45
same,"Minimum temperature for site B, MEAN ± SD",[2],−15.92 ± 2.01
same,Minimum temperature for site B,[2]; [8],−17.99
same,Minimum temperature for site B,[2]; [9],−17.03
same,Minimum temperature for site B,[2]; [10],−13.60
same,Minimum temperature for site B,[2]; [11],−16.89
same,Minimum temperature for site B,[2]; [12],−15.33
same,Minimum temperature for site B,[2]; [13],−12.73
same,Minimum temperature for site B,[2]; [14],−15.93
same,Minimum temperature for site B,[2]; [15],−18.79
same,Minimum temperature for site B,[2]; [16],−12.08
same,Minimum temperature for site B,[2]; [17],−14.03
same,Minimum temperature for site B,[2]; [18],−18.32
same,Minimum temperature for site B,[2]; [19],−16.52
same,Minimum temperature for site B,[2]; [20],16.48
same,Minimum temperature for site B,[2]; [21],−16.02
same,Minimum temperature for site B,[2]; [22],−17.12
"CCCl [ECC, Ethyl chloride]","Minimum temperature for site A, MEAN ± STANDARD DEVIATION",[1],−15.59 ± 2.50
same,Minimum temperature for site A,[1]; [3],−15.80
same,Minimum temperature for site A,[1]; [4],−11.32
same,Minimum temperature for site A,[1]; [5],−17.81
same,Minimum temperature for site A,[1]; [6],−16.19
same,Minimum temperature for site A,[1]; [7],−16.84
same,"Minimum temperature for site B, MEAN ± STANDARD DEVIATION",[1],−18.41 ± 1.92
same,Minimum temperature for site B,[1]; [3],−19.22
same,Minimum temperature for site B,[1]; [4],−15.56
same,Minimum temperature for site B,[1]; [5],−18.71
same,Minimum temperature for site B,[1]; [6],−17.80
same,Minimum temperature for site B,[1]; [7],−20.75
same,"Minimum temperature for site A, MEAN ± SD",[2],−16.12 ± 2.13
same,Minimum temperature for site A,[2]; [8],−17.89
same,Minimum temperature for site A,[2]; [9],−17.54
same,Minimum temperature for site A,[2]; [10],−14.82
same,Minimum temperature for site A,[2]; [11],−13.46
same,Minimum temperature for site A,[2]; [12],−17.04
same,Minimum temperature for site A,[2]; [13],−17.18
same,Minimum temperature for site A,[2]; [14],−13.22
same,Minimum temperature for site A,[2]; [15],−13.10
same,Minimum temperature for site A,[2]; [16],−18.11
same,Minimum temperature for site A,[2]; [17],−17.63
same,Minimum temperature for site A,[2]; [18],−15.56
same,Minimum temperature for site A,[2]; [19],−17.00
same,Minimum temperature for site A,[2]; [20],−13.13
same,Minimum temperature for site A,[2]; [21],−16.26
same,Minimum temperature for site A,[2]; [22],−19.80
same,"Minimum temperature for site B, MEAN ± SD",[2],−15.54 ± 3.33
same,Minimum temperature for site B,[2]; [8],−12.79
same,Minimum temperature for site B,[2]; [9],−17.73
same,Minimum temperature for site B,[2]; [10],−11.70
same,Minimum temperature for site B,[2]; [11],−16.21
same,Minimum temperature for site B,[2]; [12],−15.84
same,Minimum temperature for site B,[2]; [13],−15.32
same,Minimum temperature for site B,[2]; [14],−10.04
same,Minimum temperature for site B,[2]; [15],−20.86
same,Minimum temperature for site B,[2]; [16],−16.69
same,Minimum temperature for site B,[2]; [17],−18.07
same,Minimum temperature for site B,[2]; [18],−18.65
same,Minimum temperature for site B,[2]; [19],−10.58
same,Minimum temperature for site B,[2]; [20],−12.08
same,Minimum temperature for site B,[2]; [21],−17.86
same,Minimum temperature for site B,[2]; [22],−18.69
